Measurements reported in patent publication US20120128628A1, “COMBINATION OF A NUCLEOSIDE POLYMERASE INHIBITOR WITH A MACROCYCLIC PROTEASE INHIBITOR AND USE THEREOF IN THE TREATMENT OF HEPATITIS C, LIVER FIBROSIS AND IMPAIRED LIVER FUNCTION (as amended)” (priority 2009, published 2012).

Legend:
[1] = system: chronic hepatitis C genotype 1; assay: HCV RNA viral load determination (COBAS AmpilPrep/COBAS Taqman HCV Test RUO) in a dose ranging study in patients; type: in vivo, Hepatitis C virus; details: monotherapy 750 mg, bid; after 7 days of treatment
Description: A randomized, double-blind, placebo controlled, dose ranging study of Compound 1a and Compound 2 in adult patients with chronic hepatitis C genotype 1 was conducted. Approximately 54 treatment naïve males and females between 18 and 65 years of age (inclusive) with genotype 1 HCV infection who had not previously been treated with an interferon or investigational HCV therapeutic agent were enrolled. Approximately an additional 20 treatment patients who had failed treatment with the current standard of care (null, partial responders and relapsers) were enrolled. […] Subjects with liver cirrhosis or incomplete/transition to cirrhosis, or other forms of liver disease, anemia, HIV or HBV infection, hepatocellular carcinoma, cardiac disease or renal disease were excluded from this particular protocol, as well as pregnant or lactating women, women of childbearing potential, and male partners of women who are pregnant or lactating.
Seven groups, Groups I, II, III, IV, V, VI and VII, of subjects were studied. Blood samples were collected at time points to determine pharmacokinetics parameters, including Tmax, Cmax, Kel, T1/2, AUC, CL/F, Vd/F and accumulation ratio.
The specifics of Groups I, II, III, IV, V, VI and VII are shown in Table 1 below and pictorially in FIGS. 2 and 3. Group I included two arms with 8 subjects in Arm 1 and 8 subjects in Arm 2. […]

[2] = system: HCV replication; details: cited from earlier work
[3] = prodrug compared to Compound 1; cited from earlier work

Molecule	mean log change from baseline of HCV RNA viral load [1] [log10 IU/mL]	anti-viral efficacy ([2]; prodrug compared to Compound 1)	permeability [3]	plasma exposure [3]	inhibiting HCV replication [2]
diisobutyl ester prodrug of β-D-2′-deoxy-2′-fluoro-2′-C-methylcytidine [Compound 1a]	−1.3	improved anti-viral efficacy	increased permeability	increased plasma exposure	
CC(C)(C)OC(=O)N[C@H]1CCCCCC=C[C@@H]2C[C@@]2(C(=O)NS(=O)(=O)C2CC2)NC(=O)[C@@H]2C[C@@H](OC(=O)N3Cc4cccc(F)c4C3)CN2C1=O [Compound 2, (1S,4R,6S,14S,18R)-4-Fluoro-1,3-dihydro-isoindole-2-carboxylic acid 14-tert-butoxycarbonylamino-4-cyclopropanesulfonylaminocarbonyl-2,15-dioxo-3,16-diaza-tricyclo[14.3.0.04,6]nonadec-7-en-18-yl ester]					effective in inhibiting HCV replication
C[C@@]1(F)[C@H](O)[C@@H](CO)O[C@H]1n1ccc(N)nc1=O [Compound 1, β-D-2′-deoxy-2′-fluoro-2′-C-methylcytidine]					effective in inhibiting HCV replication
